# Assay results reported in US10179775B2, “Cyclooctenes for bioorthogonol reactions” (The General Hospital Corporation, priority 2014, dated 2019).
# “Also recorded” adds a separate entry of the source.
# Tests used:
# Assay type in all cases: physicochemical
# [1] = Chemical stability in the presence of cysteine by 1H NMR; settings: 37° C.; for chemical stability / isomerization, result in words: 48 mM cysteine, 20 mM cyclooctene (s-TCO 10 mM), D2O:DMSO-d6 10:1 v/v, 0-14 h
# Protocol: (§1) The chemical stability of the compounds of Examples 1-3 was also investigated in the presence of thiols (cysteine and mercaptoethanol) by NMR in D2O:DMSO-d6 10:1 v/v at 37° C.
# (§2) The solutions were prepared by the dilution of a stock solution prepared in DMSO-d6. An end concentration of 20 mM of the cyclooctenes was used except for the s-TCO, which was used in 10 mM end concentration due to poorer solubility. A 20 mM solution could not be prepared by dilution with D2O from DMSO-d6 stock solution without the precipitation of s-TCO. Nucleophiles mercaptoethanol and cysteine were used in 48 mM end concentration. Cysteine precipitated very soon from the solution. In all cases reactions were followed by ^1H NMR.
# (§3) Measurements were taken in the following intervals: mercaptoethanol: 0 h, 2 h, 11 h, 17 h and 25 h; cysteine: 0 h, 6 h and 14 h; s-TCO without nucleophile at room temperature: 1 h, 7 h and 14 h.
# (§4) In each case the ratio of the integrals of the cis-double bond to the sum of the integrals of the cis- and trans-double bonds was calculate.
# [2] = Spontaneous isomerization in D2O or D2O:DMSO-d6 without nucleophile by 1H NMR; settings: for isomerization or degradation on storage in D2O, result in words: stored in D2O, 1H NMR
# Protocol: Bulk samples of the compounds described above in Examples 1-3 were stored at −20° C. for six months. […] The spontaneous isomerization took almost 5 days at 37° C. and more than 12 days at room temperature. […] With 22, a similar degree of isomerization was observed only after 63 hours at room temperature in D2O.
# as §3, §4
# [3] = Chemical stability in the presence of mercaptoethanol by 1H NMR; design: Icis / Itrans: unit not given here; settings: for Icis / Itrans / Itrans/(Icis + Itrans) / chemical stability (change by NMR) after 16 hours: mercaptoethanol; for Icis / Itrans / Itrans/(Icis + Itrans) / chemical stability / isomerization, result in words: 37° C.; for chemical stability / isomerization, result in words: 48 mM mercaptoethanol, 20 mM cyclooctene (s-TCO 10 mM), D2O:DMSO-d6 10:1 v/v, 0-25 h; for chemical stability (change by NMR) after 16 hours: D2O:DMSO-d6 10:1 v/v at 37° C.
# Protocol: as §1, §2
# Measurements were taken in the following intervals: mercaptoethanol: 0 h, 2 h, 11 h, 17 h and 25 h; cysteine: 0 h, 6 h and 14 h; s-TCO without nucleophile at room temperature: 1 h, 7 h and 14 h. […]
# [4] = Chemical stability in the presence of cysteine by 1H NMR; settings: for Itrans/(Icis + Itrans): 37° C.; for chemical stability (change by NMR) after 16 hours: D2O:DMSO-d6 10:1 v/v at 37° C.
# [5] = Tetrazine kinetics with cyclooctenes (stopped-flow spectrophotometry); settings: for k2 second rate constant / second order rate constant k2: reaction with benzylamino tetrazine in PBS at 37° C.
# Protocol: Kinetic measurements were performed with benzylamino tetrazine and excessive amounts of cyclooctenes, using an Applied Photophysics Stopped-Flow spectrophotometer. Stock solutions of reactants in DMSO were diluted in PBS pH 7.4 to a final concentration of 1 vol % DMSO. Solutions of these reactants were loaded into the individual chambers of the instrument and equilibrated to 37° C. for 10 min. The concentration of benzylamino tetrazine after the samples were mixed by the spectrometer in a 1:1 v/v ratio was 50, 75 or 150 μM depending on the cyclooctene used. The decrease of the benzylamino tetrazine absorbance measured at 515 nm was monitored at regular intervals between 0.075 s and 10 s depending on the cyclooctene used. For trials shorter than […] (TCO-OH, OX-TCO and 3PEGMe-TCO) 1000 data points were collected and for trials longer than 1 s (EG-TCO and DO-TCO) 10000 data points were collected.
# The kobs, (s^−1) values were calculated using the Prism 6 software package and the results of 6 runs were averaged for each cyclooctene concentration. […] The average kobs, values were then plotted against the concentration of cyclooctenes to yield the second order rate constant k2=(dm^3 mol^−1 s^−1) from the slope of the line with the error from the standard deviation in the slope calculated in Prism 6.
Compound,"chemical stability / isomerization, result in words [1]","isomerization or degradation on storage in D2O, result in words [2]",Icis ([3]; t 0 h),Itrans ([3]; t 0 h),Itrans/(Icis + Itrans) ([3]; t 0 h),Icis ([3]; t 2 h),Itrans ([3]; t 2 h),Itrans/(Icis + Itrans) ([3]; t 2 h),Icis ([3]; t 11 h),Itrans ([3]; t 11 h),Itrans/(Icis + Itrans) ([3]; t 11 h),Icis ([3]; t 17 h),Itrans ([3]; t 17 h),Itrans/(Icis + Itrans) ([3]; t 17 h),Icis ([3]; t 25 h),Itrans ([3]; t 25 h),k2 second rate constant [5],chemical stability (change by NMR) after 16 hours [4],"chemical stability / isomerization, result in words [3]",chemical stability (change by NMR) after 16 hours [3],further results
"COCCOCCOCCOC1CC/C=C/CCC1O (stereo not drawn) [3PEGMe-TCO, (E)-8-(2-(2-(2-methoxyethoxy)ethoxy)ethoxy)cyclooct-4-enol]",did not show any degradation; also recorded: relatively stable,no isomerization or degradation,0.17,2,0.922,0.48,2,0.807,0.66,2,0.752,0.69,2,0.744,0.74,2,,,,,Itrans/(Icis + Itrans) ([3]; t 25 h): 0.730
"OCCOC1/C=C/COCOC1 (stereo not drawn) [DO-TCO, (E)-2-((5,8-dihydro-4H-1,3-dioxocin-5-yl)oxy)ethanol]",isomerization of the trans isomer to the cis isomer; also recorded: isomerization of the trans-isomer to the cis-isomer; also recorded: undergo isomerization/decomposition; also recorded: much faster than that of s-TCO,slow isomerization to the cis isomer,0,2,1,0.18,2,0.917,0.38,2,0.840,0.42,2,0.826,0.79,2,332 ± 3 dm^3 · mol^−1 · s^−1,,,,"Itrans/(Icis + Itrans) ([4]; t 0 h): 1; Itrans/(Icis + Itrans) ([4]; t 6 h): 0; Itrans/(Icis + Itrans) ([4]; t 14 h): 0; second order rate constant k2 [5]: 332±3 dm^3 mol^−1 s^−1; trans-isomer still present after 6 hours ([1]; cysteine, 6 hours): no trans-compound was present; Icis ([1]; cysteine, t 0 h): 0; Itrans ([1]; cysteine, t 0 h): 2; Icis ([1]; cysteine, t 6 h): 2; Itrans ([1]; cysteine, t 6 h): 0; Icis ([1]; cysteine, t 14 h): 2; Itrans ([1]; cysteine, t 14 h): 0; time the spontaneous isomerization to the cis isomer took ([2]; D2O, 37° C.): ~5 days; time after which a similar degree of isomerization (at least 5%) was observed ([2]; D2O, room temperature): 63 h; time the spontaneous isomerization to the cis isomer took ([2]; D2O, room temperature): more than 12 days; Itrans/(Icis + Itrans) ([3]; t 25 h): 0.717"
"OCCOC1/C=C/CCCCC1 (stereo not drawn) [EG-TCO, (E)-2-(cyclooct-2-en-1-yloxy)ethanol]",did not show any change; also recorded: relatively stable,,,,,,,,,,,,,,,,600 ± 6 dm^3 · mol^−1 · s^−1,did not show any change,did not show any change; also recorded: relatively stable,did not show any change,second order rate constant k2 [5]: 600±6 dm^3 mol^−1 s^−1
"O=C1OC2CC/C=C/CCC2N1CCOCCO (stereo not drawn) [OX-TCO, (E)-3-(2-(2-hydroxyethoxy)ethyl)-3,3a,4,5,9,9a-hexahydrocycloocta[d]oxazol-2(8H)-one]",did not show any change; also recorded: relatively stable,no isomerization or degradation,,,,,,,,,,,,,,,29242 ± 636 dm^3 · mol^−1 · s^−1,did not show any change,did not show any change; also recorded: relatively stable,did not show any change,"weighted average second order rate constant k2 ([5]; 4:1 isomer mixture, benzylamino tetrazine in PBS at 37° C.): 29242±636 dm^3 mol^−1 s^−1"
"OC1CC/C=C/CCC1 (stereo not drawn) [TCO-OH, trans-cyclooctenol, reference compound]",did not show any change; also recorded: relatively stable,no isomerization or degradation,,,,,,,,,,,,,,,33585 ± 326 dm^3 · mol^−1 · s^−1,did not show any change,did not show any change; also recorded: relatively stable,did not show any change,"chemical stability / isomerization, result in words ([3]; listed as TCO): isomerized very fast"
